Reference: EP4473961A1, “ORAL SOLID PHARMACEUTICAL FORMULATION COMPRISING METHADONE/LEVOMETHADONE AND OPTIONALLY NALOXONE” (L. MOLTENI & C. DEI FRATELLI ALITTI SOCIETA' DI ESERCIZIO …, priority 2023, dated 2024)

Test system: crisis of withdrawal from morphine
Conditions: rat, in vivo

For `CCC(=O)C(CC(C)N(C)C)(c1ccccc1)c1ccccc1` (centres unmarked) [methadone], the “effect on withdrawal symptoms” value was “significantly reduced the symptoms” and the “values of the scores relative to the group treated with morphine alone” value was “about 50%”.
